Counter-ions that a name gives are not always drawn.
What was measured:
Assay type in all cases: physicochemical
[1] = Test of the dissolution rate per unit area (0.5 cm^2 disk in buffer solutions)
Method: Some compounds may have difficulty in being absorbed due to a low dissolution rate. To confirm the above difficulty beforehand, a disk having the area of 0.5 cm^2 is prepared, and then its dissolution rate in various media is measured. The dissolution amount over time is measured and its value is divided by the disk's area. The value is the dissolution rate per unit area. If the value is usually 1 mg/min/cm^2 or more, it can be said that there is no phenomenon for the drug not to be absorbed due to the low dissolution rate. If the value is 0.1 mg/min/cm^2 or less, it can be said that the drug has a problem of absorption due to the low dissolution rate (see, Howard C. Ansel, Nicholas G. Popovich and Loyd V. Allen, 1995, Pharmaceutical Dosage Forms and Drug Delivery Systems, 6th ed., Williams & Wilkins, pp.109 and Jens T. Carstensen, 1996, Modern Pharmaceutics: Gilbert S. Banker and Christopher T. Rhodes (Ed.), Drugs and the pharmaceutical sciences, Vol. 72, 3rd ed., Dekker, pp. 233.). Thus, measuring the dissolution rate per unit area has a very significant meaning in predicting the absorption problem that may occur in in vivo test of the drug later. Therefore, a compound having an excellent dissolution rate per unit area should be selected as a candidate for the drug development.
200 mg of the crystalline form of maleic acid salt prepared in Example 2 was put into a mold. By applying pressure on the mold, a disk having the area of 0.5 cm^2 was prepared and the disk was added to each of the buffer solutions (600 ml) of pH 3.8 and 7.4 to conduct the dissolution test. A portion of the solution was periodically taken and its concentration was measured to determine the dissolution rate per unit area.
The same test as Test example 5 was conducted on the free compound of Formula 1. The dissolution rate per unit area of the free compound was 1.3 mg/min/cm^2 at pH 3.8 and 0.3 mg/min/cm^2 at pH 7.4.

[2] = Moisture absorption and dehumidification tests at defined relative humidities (condition observed, weight change); conditions: two days or more
Method: After 40 mg of the amorphous form of maleic acid salt prepared in Example 1 was thinly coated onto a beaker, the sample was moisture-absorbed by placing it at each relative humidity of 33%, 57%, 64%, 75% and 93% for two days or more and its condition was observed. In order to obtain each relative humidity above, as shown in the table below, saturated aqueous solutions of salts were prepared and then placed in a desiccator, and the desiccator was sealed.
100 mg of the crystalline form of maleic acid salt prepared in Example 2 was thinly coated onto a beaker and then placed at each relative humidity of 33%, 57%, 64%, 75% and 93% for two days or more to be moisture-absorbed. Thereafter, the weight change of the sample was measured while its condition is observed. In order to obtain each relative humidity above, as shown in Table 2 of Test example 2, saturated aqueous solutions of salts were prepared and then placed in a desiccator and the desiccator was sealed.
The method as described in Test example 2 was applied to the amorphous diHCl salt prepared in Comparative Example 1. From observing its change at each relative humidity, it is shown that the salt was deliquesced at the relative humidity of 75%. […] Therefore, it can be shown that the maleic acid salt is the most excellent among various acid salts.

[3] = Powder X-ray diffraction test during moisture absorption and dehumidification; conditions: vacuum dried, then relative humidity 33%, 53%, 64%, 75% and 93%, two days or more each
Method: 40 mg of the crystalline form of maleic acid salt prepared in Example 2 was thinly coated onto a sample holder and then the powder X-ray diffraction test was conducted according to the following conditions. By using Rigaku Geigeflex D/max-III C apparatus, the test was conducted at 35 kV, 20 mA.
40 mg of the maleic acid salt prepared in Example 2 was thinly coated onto a sample holder. Immediately after the sample was vacuum dried in the presence of P2O5, and after the sample was placed for moisture absorption at each relative humidity of 33%, 53%, 64%, 75% and 93% for two days or more, respectively, the powder X-ray diffraction test of the sample was conducted according to the conditions represented in the above Test example 1 to observe change of the crystalline form during moisture absorption. While lowering the relative humidity, the same test was repeated to observe change of the crystalline form during dehumidification. In order to obtain each relative humidity above, as shown in Table 2 of Test example 2, saturated aqueous solutions of salts were prepared and then placed in a desiccator and the desiccator was sealed.

dissolution rate per unit area ([1]; buffer solution pH 3.8, 600 ml) [mg/min/cm^2]	dissolution rate per unit area ([1]; buffer solution pH 7.4, 600 ml) [mg/min/cm^2]	weight increase on moisture absorption based on initial weight ([2]; relative humidity of 33%) [%]	weight increase on moisture absorption based on initial weight ([2]; relative humidity of 57%) [%]	weight increase on moisture absorption based on initial weight ([2]; relative humidity of 64%) [%]	weight increase on moisture absorption based on initial weight ([2]; relative humidity of 75%) [%]	condition observed after moisture absorption ([2]; relative humidity of 93%)	weight increase on moisture absorption based on initial weight ([2]; relative humidity of 93%) [%]	change of the powder X-ray diffraction diagram (crystalline form) during moisture absorption and dehumidification [3]	condition observed after moisture absorption ([2]; relative humidity of 75%)	SMILES
1.3	0.3	–	–	–	–	–	–	–	–	N=C(N)c1ccc(CNC(=O)[C@@H]2CCCN2C(=O)[C@H](NCC(=O)O)C(c2ccccc2)c2ccccc2)s1 [free compound, (2S)-N-{5-[amino(imino)methyl]-2-thienyl}methyl-1-{(2R)-2-[(carboxymethyl)amino]-3,3-diphenylpropanoyl}-2-pyrrolidine carboxamide]
11.8	1.7	1.4	3.0	4.3	4.1	not deliquesced	6.7	did not show any change	–	N=C(N)c1ccc(CNC(=O)[C@@H]2CCCN2C(=O)[C@H](NCC(=O)O)C(c2ccccc2)c2ccccc2)s1.O=C(O)/C=C\C(=O)O [crystalline form of maleic acid salt, maleic acid salt of (2S)-N-{5-[amino(imino)methyl]-2-thienyl}methyl-1-{(2R)-2-[(carboxymethyl)amino]-3,3-diphenylpropanoyl}-2-pyrrolidine carboxamide]
–	–	–	–	–	–	–	–	–	deliquesced	N=C(N)c1ccc(CNC(=O)[C@@H]2CCCN2C(=O)[C@H](NCC(=O)O)C(c2ccccc2)c2ccccc2)s1 [amorphous diHCl salt]
–	–	–	–	–	–	deliquesced	–	–	hardened	N=C(N)c1ccc(CNC(=O)[C@@H]2CCCN2C(=O)[C@H](NCC(=O)O)C(c2ccccc2)c2ccccc2)s1.O=C(O)/C=C\C(=O)O [amorphous form of maleic acid salt, maleic acid salt of (2S)-N-{5-[amino(imino)methyl]-2-thienyl}methyl-1-{(2R)-2-[(carboxymethyl)amino]-3,3-diphenylpropanoyl}-2-pyrrolidine carboxamide]
